The text below walks through data of ChEMBL document CHEMBL4219207, “Reversible, orally available ADP receptor (P2Y12) antagonists Part I: Hit to lead process” (Bioorg Med Chem Lett, 2018).

Data set [1] can be described thus: Cmax in Sprague-Dawley rat at 2 mg/kg, po via gavage. Type of data set: ADME, organism-based. Further details: dose 2 mg/kg, route oral. To be noted: in vivo.
The target in data set [2] is T1, P2Y purinoceptor 12 (Homo sapiens, UniProt Q9H244). Put plainly: Displacement of [3H]2MeSADP from P2Y12 receptor in human platelets after 60 mins by TopCount scintillation counting method.
T1 sequence (Q9H244 whole entry): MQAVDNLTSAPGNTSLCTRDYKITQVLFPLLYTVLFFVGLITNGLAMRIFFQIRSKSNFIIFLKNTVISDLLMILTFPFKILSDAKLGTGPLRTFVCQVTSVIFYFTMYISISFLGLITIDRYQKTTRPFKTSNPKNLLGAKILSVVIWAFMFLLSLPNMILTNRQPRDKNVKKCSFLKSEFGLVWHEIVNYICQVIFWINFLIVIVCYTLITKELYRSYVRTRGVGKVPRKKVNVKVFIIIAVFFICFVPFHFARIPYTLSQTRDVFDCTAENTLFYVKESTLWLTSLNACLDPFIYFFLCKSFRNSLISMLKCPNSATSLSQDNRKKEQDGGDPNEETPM
The nature of data set [3]: Plasma concentration in Sprague-Dawley rat at 2 mg/kg, po via gavage after 1 hr using sample obtained from portal vein. Type of data set: ADME, organism-based.
Data set [4] in a line: Plasma concentration in Sprague-Dawley rat at 2 mg/kg, po via gavage after 3 hrs using sample obtained from jugular vein. Type of data set: ADME, organism-based.
The nature of data set [5]: Plasma concentration in Sprague-Dawley rat at 2 mg/kg, po via gavage after 1 hr using sample obtained from jugular vein. The class given is ADME, organism-based.
A short description of data set [6]: Plasma concentration in Sprague-Dawley rat at 2 mg/kg, po via gavage after 3 hrs using sample obtained from portal vein. Type of data set: ADME, organism-based.
Data set [7] has as its target T1, P2Y purinoceptor 12. The experiment in a line: Competitive/reversible antagonist activity at P2Y12 receptor in platelets (unknown origin) assessed as inhibition of ADP-induced platelet aggregation. The class given is functional.
Data set [8] in a line: Half life in Sprague-Dawley rat at 2 mg/kg, po via gavage. Type of data set: ADME, organism-based. As to conditions: in vivo.
A short description of data set [9]: Metabolic stability in rat liver microsomes assessed as parent compound remaining at 3000 nM. As to conditions: read-out: Stability. The class given is ADME, microsome.
Data set [10] can be described thus: Metabolic stability in human liver microsomes assessed as parent compound remaining at 3000 nM. The class given is ADME, microsome. As to conditions: read-out: Stability. For orientation: Microsomes from liver hold many membrane-bound enzymes, among them those of drug oxidation.
Data set [11] in a line: Permeability in human Caco2 cells. Type of data set: ADME, cell-based. To be noted: Caco-2, read-out: permeability.
Data set [12] is described as follows: Metabolic stability in dog liver microsomes assessed as parent compound remaining at 3000 nM. The class given is ADME, Canis lupus familiaris, microsome. As to conditions: read-out: Stability.
Data set [13] in a line: Oral bioavailability in Sprague-Dawley rat at 2 mg/kg via gavage. The class given is ADME, organism-based. To be noted: in vivo.

Structures are written as SMILES. pIC50: −log10 of the molar value.

The term Cmax denotes the peak of the concentration-time curve. One may read the pIC50 as the negative decadic logarithm of the IC50, by convention in mol/L. Lower therefore signals a large IC50. As a reminder, the Kb is the equilibrium dissociation constant of an antagonist, usually derived from a functional assay. The half-life is how long it takes for the measured level to halve. Lower therefore signals rapid decline. The term bioavailability denotes dose-corrected exposure relative to a reference, in per cent. Read a low bioavailability as little systemic uptake.

Turning to `CCOC(=O)N1CCN(C(=O)CNC(=O)C=C2c3ccccc3-c3ccccc32)CC1`, the Cmax in [1] is 2700 nM. The compound further had a pIC50 in data set [2] of 6.07.

In the case of `CCOC(=O)N1CCN(C(=O)[C@H](C)NC(=O)c2cc(OC)c3ccccc3n2)CC1`, the pIC50 in data set [2] is 5.72. `CCOC(=O)N1CCN(C(=O)[C@H](CC(N)=O)NC(=O)c2cc(OC)c3ccccc3n2)CC1` gave a pIC50 in data set [2] of 5.68. The same measure, in the same setting: the value for `COC(=O)N1CCN(C(=O)CNC(=O)c2cc(OC)c3ccccc3n2)CC1` was less than 5.52; that for `CCOC(=O)N1CCN(C(=O)[C@H](CO)NC(=O)c2cc(OC)c3ccccc3n2)CC1` was 5.96. Same read-out and setting: the figure for `CCOC(=O)N1CCN(C(=O)[C@H](COCC(=O)O)NC(=O)c2cc(OC)c3ccccc3n2)CC1` is 6.70. As to `CCOC(=O)N1CCN(C(=O)[C@H](CC(=O)O)NC(=O)c2cc(OC)c3ccccc3n2)CC1`, the concentration at 1 h amounted to 410 nM in data set [3] and 270 nM in data set [5]. The same compound gave a pIC50 in data set [2] of 6.82. Besides, the concentration at 3 h in data set [4] was determined as 200 nM; in data set [6], 380 nM. In [2], `CCOC(=O)N1CCN(C(=O)[C@H](CCC(N)=O)NC(=O)c2cc(OC)c3ccccc3n2)CC1` showed a pIC50 of 5.60.

As to `CCOC(=O)N1CCN(C(=O)CNC(=O)c2cc(OCC)c3ccccc3n2)CC1`, the pIC50 in data set [2] was 6.08. `CCOC(=O)N1CCN(C(=O)CNC(=O)c2cc(OC)c3ccccc3n2)[C@H](C)C1` had a pIC50 in data set [2] of 5.35. On the same count and under the same terms, the value for `CCCOc1cc(C(=O)NCC(=O)N2CCN(C(=O)OCC)CC2)nc2ccccc12` was 6.28; that for `CCOC(=O)N1CCN(C(=O)[C@@H](NC(=O)c2cc(OC)c3ccccc3n2)C(C)C)CC1` was 5.82. `CCOC(=O)N1CCN(C(=O)CNC(=O)c2cc(OC)c3ccccc3n2)C[C@@H]1C` showed a pIC50 in [2] of 5.77.

For the compound `CCOC(=O)N1CCN(C(=O)CNC(=O)c2cc(OC)c3ccccc3n2)C[C@H]1C`, in data set [2], the pIC50 is 5.37. Same read-out and setting: the figure for `CCOC(=O)N1CCN(C(=O)CN(C)C(=O)c2cc(OC)c3ccccc3n2)CC1` is 4.68; for `CCOC(=O)N1CCN(C(=O)[C@H](Cc2ccccc2)NC(=O)c2cc(OC)c3ccccc3n2)CC1` it is 5.07; for `CCOC(=O)N1CCN(C(=O)[C@@H](CSCC(=O)O)NC(=O)c2cc(OC)c3ccccc3n2)CC1` it is 6.72. Take `CCOC(=O)N1CCN(C(=O)[C@H](CCC(=O)O)NC(=O)c2cc(OC)c3ccccc3n2)CC1`: the Kb in [7] stood at 0.094 µM. For the same compound, the half-life in data set [8] is 1.2 h. The remaining at 3 µM in data set [9], in data set [10] and in data set [12] was greater than 90% in each case. Also, the peak concentration (Cmax) in data set [1] was 120 nM. Also, the concentration at 1 h in data set [3] stood at 340 nM; in [5], 120 nM. In addition, the pIC50 in data set [2] was 7.07. Also, in data set [11], the Papp was 0.166 ×10⁻⁶ cm/s. The concentration at 3 h in data set [4] came to 100 nM; in data set [6], 340 nM. `COc1cc(C(=O)NCC(=O)N2CCN(c3cccc(C)c3)CC2)nc2ccccc12`: the pIC50 in data set [2] is 6.05. The compound `COc1cc(C(=O)NCC(=O)N2CCN(C(=O)NC(C)(C)C)CC2)nc2ccccc12` gave a pIC50 in data set [2] of 6.04. The same measure, in the same setting: the figure for `CCCCCC(=O)N1CCN(C(=O)CNC(=O)c2cc(OC)c3ccccc3n2)CC1` is 5.92.

In [2], `CCOC(=O)N1CCN(C(=O)[C@@H](CCC(=O)O)NC(=O)c2cc(OC)c3ccccc3n2)CC1` had a negative-log IC50 (pIC50) of 4.66. In data set [2], `CCOC(=O)N1CCN(C(=O)[C@H](Cc2c[nH]c3ccccc23)NC(=O)c2cc(OC)c3ccccc3n2)CC1` gave a pIC50 of 5.10. Compound `CCc1ccc(C(=O)N2CCN(C(=O)CNC(=O)c3cc(OC)c4ccccc4n3)CC2)cc1` gave a pIC50 in data set [2] of 5.74.

The compound `CCOC(=O)N1CCN(C(=O)[C@H](CCCC(=O)O)NC(=O)c2cc(OC)c3ccccc3n2)CC1` had a pIC50 in [2] of 6.57. Take `CCOC(=O)N1CCN(C(=O)[C@@H](CC(=O)O)NC(=O)c2cc(OC)c3ccccc3n2)CC1`: the pIC50 in [2] was 4.74. `CCOC(=O)N1CCN(C(=O)[C@H](Cc2cnc[nH]2)NC(=O)c2cc(OC)c3ccccc3n2)CC1`: the pIC50 in [2] was 5.82. Regarding `CCOC(=O)N1CCN(C(=O)CNC(=O)c2cc(OC)c3ccccc3n2)[C@@H](C)C1`, in data set [2], the pIC50 was 5.96. In data set [2], `CCOC(=O)N1CCN(C(=O)CNC(=O)c2cc(O)c3ccccc3n2)CC1` had a pIC50 of less than 5.70. Same read-out and setting: the figure for `CCOC(=O)N1CCN(C(=O)[C@@H](C)NC(=O)c2cc(OC)c3ccccc3n2)CC1` is 4.85. The same measure, in the same setting: the value for `CCOC(=O)N1CCN(C(=O)CNC(=O)c2cc(OCc3ccccc3)c3ccccc3n2)CC1` was less than 5.52. Consider `CCOC(=O)N1CCN(C(=O)CNC(=O)c2ccc3ccccc3c2)CC1`, for which the Cmax in data set [1] was determined as 1500 nM. The compound further gave a pIC50 in [2] of 5.74. `CCOC(=O)N1CCN(C(=O)[C@H](CC(=O)NCC(=O)O)NC(=O)c2cc(OC)c3ccccc3n2)CC1`: the negative-log IC50 (pIC50) in [2] is 5.96. For the compound `CCOC(=O)N1CCN(C(=O)CNC(=O)c2cc(OC)c3ccccc3n2)CC1`, in data set [13], the bioavailability was 42%. In data set [1], this compound yielded a Cmax of 1200 nM. The compound further had a pIC50 in data set [2] of 6.16.

Consider `CCOC(=O)N1CCN(C(=O)[C@H](CCCCN)NC(=O)c2cc(OC)c3ccccc3n2)CC1`, for which the pIC50 in data set [2] was 4.59.
